Literature values, collected in paper PMC6261661 (ACS chemical neuroscience, 2018).
Like-named read-outs stand apart in the source and are kept apart here. Square brackets hold non-standard residues; d marks the D form. dBip = N[C@H](Cc1ccc(-c2ccccc2)cc1)C(=O)O; d2Nal = N[C@H](Cc1ccc2ccccc2c1)C(=O)O; 3Pal = N[C@@H](Cc1cccnc1)C(=O)O; 4Pal = N[C@@H](Cc1ccncc1)C(=O)O

How the values were obtained:
mMC3R = mMC3R (Mus musculus, UniProt P33033); details: cited from earlier work; for EC50: read-out: mMC3R EC50, reference peptide from the literature
mMC3R, sequence (P33033 whole entry): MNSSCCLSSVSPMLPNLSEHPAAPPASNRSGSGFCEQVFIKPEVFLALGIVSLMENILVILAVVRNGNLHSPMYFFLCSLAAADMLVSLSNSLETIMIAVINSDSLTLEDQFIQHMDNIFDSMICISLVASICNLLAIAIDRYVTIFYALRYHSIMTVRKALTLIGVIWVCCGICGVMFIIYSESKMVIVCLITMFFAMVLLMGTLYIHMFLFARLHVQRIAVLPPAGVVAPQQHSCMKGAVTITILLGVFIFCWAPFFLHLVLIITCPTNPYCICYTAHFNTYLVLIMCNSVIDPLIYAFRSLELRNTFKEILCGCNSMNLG

mMC4R = mMC4R (Mus musculus, UniProt P56450); details: read-out: mMC4R EC50, reference peptide from the literature, cited from earlier work
mMC4R, sequence (P56450 whole entry): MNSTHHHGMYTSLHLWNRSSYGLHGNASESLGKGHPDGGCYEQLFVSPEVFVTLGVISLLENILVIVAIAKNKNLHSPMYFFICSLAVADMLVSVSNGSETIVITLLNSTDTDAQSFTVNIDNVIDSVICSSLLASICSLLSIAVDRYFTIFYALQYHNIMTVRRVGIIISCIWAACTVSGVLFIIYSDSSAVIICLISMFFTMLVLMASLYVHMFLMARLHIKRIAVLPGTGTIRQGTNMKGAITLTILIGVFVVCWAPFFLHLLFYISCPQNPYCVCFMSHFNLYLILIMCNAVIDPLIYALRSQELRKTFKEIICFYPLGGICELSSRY

mMC5R = mMC5R (Mus musculus, UniProt P41149); details: read-out: mMC5R EC50, reference peptide from the literature, cited from earlier work
mMC5R, sequence (P41149 whole entry): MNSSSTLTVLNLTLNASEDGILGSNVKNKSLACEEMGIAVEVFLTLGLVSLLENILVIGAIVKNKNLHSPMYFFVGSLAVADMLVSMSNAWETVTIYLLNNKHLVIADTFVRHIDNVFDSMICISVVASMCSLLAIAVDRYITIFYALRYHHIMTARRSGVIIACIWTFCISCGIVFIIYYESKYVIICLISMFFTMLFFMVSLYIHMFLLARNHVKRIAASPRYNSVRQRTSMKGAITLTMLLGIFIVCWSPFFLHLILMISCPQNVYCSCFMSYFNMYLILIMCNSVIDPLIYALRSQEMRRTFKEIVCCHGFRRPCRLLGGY

mMC1R = mMC1R (Mus musculus, UniProt Q01727); details: read-out: mMC1R EC50, reference peptide from the literature, cited from earlier work
mMC1R, sequence (Q01727 whole entry): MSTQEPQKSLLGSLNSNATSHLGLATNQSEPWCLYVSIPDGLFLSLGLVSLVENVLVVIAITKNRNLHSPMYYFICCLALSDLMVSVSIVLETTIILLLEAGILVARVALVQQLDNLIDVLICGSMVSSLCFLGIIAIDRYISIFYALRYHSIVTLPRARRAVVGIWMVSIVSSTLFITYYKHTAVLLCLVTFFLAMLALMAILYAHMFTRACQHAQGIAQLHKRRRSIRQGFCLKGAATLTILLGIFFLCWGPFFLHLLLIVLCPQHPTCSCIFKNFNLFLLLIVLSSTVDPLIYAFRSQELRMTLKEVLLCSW

Substance	EC50 (mMC3R; ref [31]) [nM]	EC50 (mMC4R; ref [31]) [nM]	EC50 (mMC5R; ref [31]) [nM]	EC50 (mMC1R; ref [31]) [nM]	EC50 (mMC4R; ref [33]) [nM]	EC50 (mMC5R; ref [33]) [nM]	EC50 (mMC1R; ref [33]) [nM]	further results
Ac-H[dF]R[d2Nal]-NH2 [Peptide 40]	1600 ± 600	46.2 ± 7.9	12.1 ± 3.3	130 ± 30				
Ac-H[dF]R[dBip]-NH2 [Peptide 43]	16000 ± 5000	1500 ± 400	150 ± 10	310 ± 70				
Ac-His-(pI)DPhe-Arg-Trp-NH2 [Peptide 45]								EC50 (mMC5R; ref [32]): 1.6 ± 0.4 nM
Ac-His-DBip-Arg-Trp-NH2 [Peptide 47]								EC50 (mMC3R; ref [32]): 2100 ± 700 nM; EC50 (mMC4R; ref [32]): 68 ± 16 nM; EC50 (mMC5R; ref [32]): 11.6 ± 3.9 nM; EC50 (mMC1R; ref [32]): 28 ± 11 nM
Ac-His-DNal(1’)-Arg-Trp-NH2 [Peptide 46]								EC50 (mMC3R; ref [32]): 4100 ± 100 nM; EC50 (mMC4R; ref [32]): 300 ± 70 nM; EC50 (mMC5R; ref [32]): 51 ± 4 nM; EC50 (mMC1R; ref [32]): 360 ± 60 nM
Ac-His-DPhe-Arg-3Bal-NH2 [Peptide 44]	3700 ± 1400	140 ± 20	48 ± 4	80 ± 9				
Ac-His-DPhe-Arg-Phe-NH2 (Ac-H[dF]RF-NH2; SMILES CC(=O)N[C@@H](Cc1c[nH]cn1)C(=O)N[C@H](Cc1ccccc1)C(=O)N[C@@H](CCCNC(=N)N)C(=O)N[C@@H](Cc1ccccc1)C(N)=O) [Peptide 37]	27000 ± 7000	7800 ± 2500	890 ± 110	530 ± 240				
Ac-Phe-DPhe-Arg-Trp-NH2 (Ac-F[dF]RW-NH2; SMILES CC(=O)N[C@@H](Cc1ccccc1)C(=O)N[C@H](Cc1ccccc1)C(=O)N[C@@H](CCCNC(=N)N)C(=O)N[C@@H](Cc1c[nH]c2ccccc12)C(N)=O) [Peptide 48]					71 ± 14	140 ± 5	500 ± 100	EC50 (mMC3R; ref [33]): 12000 ± 2000 nM
Ac-Trp-DPhe-Arg-Trp-NH2 (Ac-W[dF]RW-NH2; SMILES CC(=O)N[C@@H](Cc1c[nH]c2ccccc12)C(=O)N[C@H](Cc1ccccc1)C(=O)N[C@@H](CCCNC(=N)N)C(=O)N[C@@H](Cc1c[nH]c2ccccc12)C(N)=O) [Peptide 49]					530 ± 150	510 ± 100	5400 ± 1800	EC50 (mMC3R; ref [33]): 10000 ± 2000 nM
Ac-[3Pal][dF]RW-NH2 [Peptide 50]					890 ± 100	400 ± 100	1200 ± 200	mMC3R pharmacology in words (mMC3R; ref [33]): only slight agonist activity
Ac-[4Pal][dF]RW-NH2 [Peptide 51]					130 ± 30	93 ± 22	180 ± 80	EC50 (mMC3R; ref [33]): 2300 ± 800 nM
Octanoyl-His-DPhe-Arg-Trp-NH2 [Peptide 54]								EC50 (mMC3R; ref [34]): 4 ± 0.7 nM; EC50 (mMC5R; ref [34]): 0.79 ± 0.25 nM
